This series can be described thus: Twenty-four hour aqueous solubility at 25° C. The format is physicochemical. The note with it: thermodynamic from solid, crystalline. The protocol:
Twenty-four Hour Aqueous Solubility of Crystalline GLP1RA-Ca at 25° C.
Twenty-Four Hour Aqueous Solubility of Preparation 3 SDD at 25° C.

Where only a bound is given, the exact number is not on record here.

By solubility is commonly meant how much of the substance goes into solution per volume. A low value points to a poorly soluble substance. `Cc1cc(-n2nc3c(c2-n2ccn(-c4ccc5c(cnn5C)c4F)c2=O)[C@H](C)N(C(=O)c2cc4cc([C@H]5CCOC(C)(C)C5)ccc4n2[C@@]2(c4noc(=O)[nH]4)C[C@@H]2C)CC3)cc(C)c1F` [GLP1RA-Ca, 3-[(1S,2S)-1-[5-[(4S)-2,2-dimethyloxan-4-yl]-2-[(4S)-2-(4-fluoro-3,5-dimethylphenyl)-3-[3-(4-fluoro-1-methylindazol-5-yl)-2-oxoimidazol-1-yl]-4-methyl-6,7-dihydro-4H-pyrazolo[4,3-c]pyridine-5-carbonyl]indol-1-yl]-2-methylcyclopropyl]-4H-1,2,4-oxadiazol-5-one, 0.5 Ca hydrate]: the solubility at 24 h is, setting by setting: (aqueous buffer, pH 4.5 acetate buffer (USP), media pH 4.5) under 1 µg/mL; (aqueous buffer, pH 6.0 phosphate buffer (USP), media pH 5.99) under 1 µg/mL; (aqueous buffer, pH 7.5 phosphate buffer (USP), media pH 7.44) 3 µg/mL; (fassif, Fasted state simulated intestinal fluid, media pH 6.49) 2 µg/mL; (fessif, Fed state simulated intestinal fluid, media pH 4.93) 13 µg/mL; (simulated gastric fluid, 0.01N HCl, media pH 1.98) under 1 µg/mL. The solubility at 24 h was under 1 µg/mL (simulated gastric fluid, 0.1N HCl, media pH 1.01); 3 µg/mL (Simulated gastric fluid, media pH 1.97); 28 µg/mL (Water, media pH not measured).

These data come from patent US20250325525A1, “GLP1 TABLET COMPOSITIONS” (Eli Lilly and Company, priority 2022, published 2025).
